# In patent publication EP0354046A2 (MAY & BAKER LIMITED, priority 1988, dated 1990):
# Tests used:
# Assay type in all cases: in vivo
# [1] = test system: Brachiaria plantaginea (BRAPL); test: Field experiment, post-emergence spray, % control of grass weed; conditions: 29 days after application
# Procedure: (§1) The following control figures were recorded on the grass weeds Brachiaria plantaginea (BRAPL), Digitaria horizontalis (DIGHO) and Eleusine indica (ELEIN) 29 days after application.
# [2] = test system: Digitaria horizontalis (DIGHO); test: as above; conditions: 29 days after application
# Procedure: as §1
# Eleusine indica (ELEIN) = test: as above; conditions: 29 days after application
# Procedure: as §1
# Abutilon theophrasti = test: Glasshouse experiment 3, % inhibition of growth (fresh weight, 19 days); conditions: for ED₉₀: 1-2 leaves
# Procedure: (§2) A series of experiments was carried out to determine the nature of the biological interaction between bromoxynil and five compounds of general formula I on a range of weed species. The 3-benzoyl-piperidine-2,4-dione derivatives were compounds 1, 74, 99, 110 and 126. […] The growth stages of the plants at spraying are also presented with the results. Agricultural surfactant (nonyl phenol ethylene oxide condensate containing 9 moles ethylene oxide marketed as 'Agral') was added to all spray dilutions to give 0.2% v/v concentration.
# (§3) After spraying the pots were arranged in randomised blocks in a glasshouse and watered as necessary. After 19 days the fresh weight of vegetation in each pot was determined. The mean fresh weights were used to calculate the percentage inhibition of each species thus [formula]
# (§4) E = X + Y […] where E, X and Y are percentage inhibition of growth.
# (§5) The ED values were then used to plot an isobole for each species according to the method of P.M.L. Tammes op cit. The results of percentage inhibition of growth, the ED values calculated from them and the calculated expected values are given in Tables 1-8.
# Amaranthus retroflexus = test: as above; conditions: 2 leaves
# Procedure: as §2, §3, §4, §5
# Brassica kaber = test: as above
# Procedure: as §2, §3, §4, §5
# Digitaria sanguinalis = test: as above
# Procedure: as §2, §3, §4, §5
# Eleusine indica = test: as above
# Procedure: as §2, §3, §4, §5
# Echinochloa crus-galli [3] = test: Glasshouse experiment 2, percentage phytotoxicity after 19 days; conditions: Compound 74 alone; dose giving 90% phytotoxicity
# Procedure: Agricultural surfactant-nonylphenol ethylene oxide condensate containing 9 moles ethylene oxide was added to all spray dilutions to give 0.2% v/v concentration.
# After spraying, the pots were arranged in randomised blocks in a glasshouse, watered as necessary, and assessed after 19 days for percentage phytotoxicity (reduction in green area compared with unsprayed plants) (0 = no effect; 100 = complete destruction).
# The results were then used to plot an isobole with a "one-sided effect" according to the methods of P.M.L. Tammes op.cit.
# Chenopodium album = test: Glasshouse experiment 3, % inhibition of growth (fresh weight, 19 days); conditions: Compound 74 alone; 2-6 leaves
# Procedure: as §2, §3, §4, §5
# Echinochloa crus-galli [4] = test: as above; conditions: Compound 74 alone; 3 leaves
# Procedure: as §2, §3, §4, §5
# Solanum nigrum = test: as above; conditions: Compound 74 alone; 2-3 leaves
# Procedure: as §2, §3, §4, §5
# maize var. Irla = test: Glasshouse experiment 4, percentage phytotoxicity on crop after 11 days; conditions: for % crop phytotoxicity Maize (3-4 leaves): Bromoxynil 0 g/ha; for ED₂₀ crop phytotoxicity Maize (3-4 leaves): applied alone
# Procedure: Agricultural surfactant ('Agral') was added to the spray dilutions to give 0.2%v/v concentration.
# After spraying the pots were arranged in randomised blocks in a glasshouse and water as necessary. After 11 days the plants were assessed for percentage phytotoxicity (reduction in green area compared with unsprayed plants (0 = no effect 100 = complete destruction).
# E = X + Y […] where E, X and Y are percentage phytotoxicity.
# The ED values were then used to plot an isobole for each mixture according to the method of P.M.L. Tammes op cit.
smiles,measurement,setting,value
"CC1(C)CC(=O)C(C(=O)c2ccc(Cl)cc2[N+](=O)[O-])C(=O)N1 (stereo not drawn) [Compound 1, 3-(4-chloro-2-nitrobenzoyl)-6,6-dimethylpiperidine-2,4-dione]",% control observed,[1]; Compound 1 @ 250g/ha,60%
same,% control observed,[1]; Compound 1 @ 500g/ha,80%
same,% control observed,[2]; Compound 1 @ 250g/ha,70%
same,% control observed,[2]; Compound 1 @ 500g/ha,80%
same,% control observed,Eleusine indica (ELEIN); Compound 1 @ 250g/ha,70%
same,% control observed,Eleusine indica (ELEIN); Compound 1 @ 500g/ha,80%
same,ED₅₀,"Abutilon theophrasti; Compound 1 alone, 3 leaves",ED₅₀(g/ha) 21.1
same,ED₉₀,Amaranthus retroflexus; Compound 1 alone,ED₉₀(g/ha) 21.6
same,ED₉₀,"Brassica kaber; Compound 1 alone, 2-3 leaves",ED₉₀(g/ha) 58.1
same,ED₅₀,"Digitaria sanguinalis; Compound 1 alone, 3-4 leaves",ED₅₀ (g/ha) 21.6
same,ED₉₀,"Eleusine indica; Compound 1 alone, 3-4 leaves",ED₉₀ (g/ha) 66.8
"O=C1CCNC(=O)C1C(=O)c1ccc(C(F)(F)F)cc1[N+](=O)[O-] (stereo not drawn) [Compound 74, 3-(2-nitro-4-trifluoromethylbenzoyl)piperidine-2,4-dione]",ED₉₀,Echinochloa crus-galli [3],82 g/ha
same,ED₉₀,Abutilon theophrasti; Compound 74 alone,ED₉₀(g/ha) 125.6
same,ED₉₀,Amaranthus retroflexus; Compound 74 alone,ED₉₀(g/ha) 22.1
same,ED₉₀,Chenopodium album,ED₉₀(g/ha) 3.67
same,ED₉₀,"Digitaria sanguinalis; Compound 74 alone, 3 leaves",ED₉₀(g/ha) 180.4
same,ED₉₀,Echinochloa crus-galli [4],ED₉₀(g/ha) 168.6
same,ED₉₀,"Eleusine indica; Compound 74 alone, 3 leaves",ED₉₀(g/ha) 260.4
same,ED₉₀,Solanum nigrum,ED₉₀(g/ha) 21.45
same,% crop phytotoxicity Maize (3-4 leaves),maize var. Irla; Compound (74 or 99) 63 g/ha,0%
same,% crop phytotoxicity Maize (3-4 leaves),maize var. Irla; Compound (74 or 99) 125 g/ha,0%
same,% crop phytotoxicity Maize (3-4 leaves),maize var. Irla; Compound (74 or 99) 250 g/ha,3%
same,% crop phytotoxicity Maize (3-4 leaves),maize var. Irla; Compound (74 or 99) 500 g/ha,6%
same,% crop phytotoxicity Maize (3-4 leaves),maize var. Irla; Compound (74 or 99) 1000 g/ha,17%
same,% crop phytotoxicity Maize (3-4 leaves),maize var. Irla; Compound (74 or 99) 2000 g/ha,63%
same,ED₂₀ crop phytotoxicity Maize (3-4 leaves),maize var. Irla,ED₂₀(g/ha) 780
"CC1(C)CC(=O)C(C(=O)c2ccc(C(F)(F)F)cc2[N+](=O)[O-])C(=O)N1 (stereo not drawn) [Compound 99, 3-(2-nitro-4-trifluoromethylbenzoyl)-6,6-dimethylpiperidine-2,4-dione]",ED₉₀,Abutilon theophrasti; Compound 99 alone,ED₉₀(g/ha) 23.6
same,ED₉₀,Amaranthus retroflexus; Compound 99 alone,ED₉₀(g/ha) 16.8
same,ED₉₀,"Brassica kaber; Compound 99 alone, 2 leaves",ED₉₀(g/ha) 54.9
same,% crop phytotoxicity Maize (3-4 leaves),maize var. Irla; Compound (74 or 99) 63 g/ha,0%
same,% crop phytotoxicity Maize (3-4 leaves),maize var. Irla; Compound (74 or 99) 125 g/ha,0%
same,% crop phytotoxicity Maize (3-4 leaves),maize var. Irla; Compound (74 or 99) 250 g/ha,0%
same,% crop phytotoxicity Maize (3-4 leaves),maize var. Irla; Compound (74 or 99) 500 g/ha,4%
same,% crop phytotoxicity Maize (3-4 leaves),maize var. Irla; Compound (74 or 99) 1000 g/ha,50%
same,% crop phytotoxicity Maize (3-4 leaves),maize var. Irla; Compound (74 or 99) 2000 g/ha,51%
same,ED₂₀ crop phytotoxicity Maize (3-4 leaves),maize var. Irla,ED₂₀(g/ha) 797
